Data from patent US10030026B2, “Difluoroethylpyridine derivatives as NR2B NMDA receptor antagonists” (Rugen Holdings (Cayman) Limited, priority 2014, dated 2018).
Where “and” joins values, the source holds several entries; their conditions need not be identical. Equal values may be shown once.

How the values were obtained:
human NR1/NR2A = human NR1/NR2A (Homo sapiens (Human), UniProt Q05586+Q12879); experiment: NR2A antagonist activity, Fluo-4 calcium influx assay in HEK293 cells; format: cell-based
Description: (§1) Activation of the NR2A or NR2B subtype of NMDA receptor with glutamate as an agonist and glycine co-agonist on these cells results in calcium influx, which can be monitored with fluorescent indicator Fluo-4.
(§2) For experiments, the cells were seeded onto poly-D-lysine-coated 96-well black plates with clear bottom (Corning) at a density of ˜50,000 cells/well. After overnight culture, the growth medium was removed from the wells and the cells were incubated at 37° C. for 60 min in Hanks buffer containing 4 μM fluo-4-AM (Invitrogen) and 0.1% bovine serum albumin (BSA). After dye-loading, the cells were washed three times with Hanks buffer and incubated for 10 min at room temperature with various concentrations of test compounds prepared in Hanks buffer with 0.1% BSA. The cell plates were placed onto FDSS μCell fluorescence reader (Hamamatsu). After 20 sec reading of background fluorescence, agonist glutamate at final 100 μM and co-agonist glycine at final 50 μM were added to the cells to activate the receptor, and the resulting fluorescence changes were recorded and quantified.

human NR1/NR2B = human NR1/NR2B (Homo sapiens (Human), UniProt Q13224); experiment: NR2B antagonist activity, Fluo-4 calcium influx assay in HEK293 cells; format: cell-based; conditions: HEK293 cells stably expressing NR2B; glutamate 100 μM, glycine 50 μM
Description: as §1, §2

Male mice (strain NLMN) = experiment: Forced swim test; format: in vivo
Description: Mice that are forced to swim in a situation from which they cannot escape, rapidly become immobile. Drugs with antidepressant activity, such as imipramine, reduce the amount of time spent in the immobile state. […] All animals were housed in a temperature (22-24° C.) and humidity (50-60%) controlled environment with free access to food and water on a 12-hour light-dark cycle. Test compounds were dissolved in 0.5% dimethylsulfoxide, 4% hydroxypropyl-b-cyclodextrin water to generate the appropriate dosing solution. Drugs were administered by intraperitoneal injection at a dose volume of 10 mL/kg. Testing was initiated 20-60 minutes after dosing. […] Mice were placed in a white plastic cylinder 20 cm high with a diameter of 21 cm containing 10 cm of water at 25±2° C. The mice were videotaped for 6 minutes, and the last 4 minutes of video were analyzed by a blinded observer off-line. The observer judged the animal to be immobile when it ceased all activity (struggling, swimming, jumping etc.) and floated passively atop the water. The amount of time each animal spent in the immobile state was recorded and used for statistical analysis of compound effect. Group differences were evaluated by student's t-test or one-way ANOVA followed by post-hoc Dunnett's test.

hERG channel = hERG channel (Homo sapiens (Human), UniProt Q12809); experiment: hERG channel inhibition, whole cell patch clamp in HEK293 cells; format: cell-based; conditions: hERG stably expressed in HEK293 cells
Description: The assay was performed on hERG channel stably expressed in HEK293 cells. The cells were cultured at 37° C. in a humidified CO2 incubator in the growth medium consisting of DMEM, 10% fetal bovine serum and antibiotics. Prior to the assay, the cells were seeded onto a 12 mm PDL-coated glass coverslip and cultured in a 35 mm Petri dish. After 16 to 40 hr culture, the cover slip was transferred into the chamber of OctaFlow perfusion system (ALA Instrument) and under a constant flow of extracellular solution (140 mM NaCl, 4 M KCl, 1 mM MgCl2, 1 mM CaCl2, 10 mM HEPES, 10 mM D-glucose, pH 7.35, osmolarity 290). Whole cell patch clamping was performed with a glass micropipette filled with intracellular solution (120 mM KCl, 1.75 mM MgCl2, 10 mM HEPES, 10 mM EGTA, and 4 mM ATP-K2, PH 7.2, osmolarity 300). Giga-seal was maintained during the test. The voltage control and current measurement were carried out using Axon amplifier 700B, Digidata 1440A and CLAMPEX10 software (Molecular Devices). Whole-cell hERG currents were recorded following the Petroski protocol: the cell was held at −80 mV, and the voltage step jumped from −80 to 30 mV and stay for 2 sec with a 20 ms prepulse at −40 mV. After depolarization, the voltage was decreased to −40 mV and stay for 2 sec, and returned back to −80 mV. Test compound was applied by quartz capillary tubes tip (200 μm inner diameter), and the flow rate was controlled at 2-3 ml/min with OctaFlow perfusion system. Different concentrations of the compound were applied to the cells for 5 min and the hERG current was measured three times before, during and after compound treatment. The data were analyzed using Clampfit 10 software (Molecular Devices).

CYP2D6 = CYP2D6 (Homo sapiens (Human), UniProt P10635); experiment: CYP P450 enzyme inhibition in pooled human liver microsome
CYP2D6, sequence (P10635 whole entry): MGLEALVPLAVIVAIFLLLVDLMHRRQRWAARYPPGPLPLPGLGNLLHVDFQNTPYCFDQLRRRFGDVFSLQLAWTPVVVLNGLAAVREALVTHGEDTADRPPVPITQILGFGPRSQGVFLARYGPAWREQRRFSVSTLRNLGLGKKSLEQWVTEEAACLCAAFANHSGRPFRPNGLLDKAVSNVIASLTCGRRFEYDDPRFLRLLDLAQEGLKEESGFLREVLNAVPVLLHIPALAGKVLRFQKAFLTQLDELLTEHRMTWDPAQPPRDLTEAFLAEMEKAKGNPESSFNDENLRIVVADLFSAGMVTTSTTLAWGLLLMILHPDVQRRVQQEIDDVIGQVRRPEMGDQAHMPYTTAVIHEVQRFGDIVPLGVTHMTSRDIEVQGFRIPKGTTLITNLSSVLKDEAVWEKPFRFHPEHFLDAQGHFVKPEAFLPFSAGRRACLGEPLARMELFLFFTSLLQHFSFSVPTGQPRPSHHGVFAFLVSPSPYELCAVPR
Description: Those CYP isoforms and their corresponding probe substrates are as follows: CYP1A2 (phenacetin, 30 μM), CYP2C9 (tolutamide, 100 μM), CYP2C19 (S-mephenytoin, 40 μM), CYP2D6 (dextromethorphan, 5 μM) and CYP3A4 (midazolam, 1 μM). All probe substrates were used at concentrations near or below their Kms. For experiment, a reaction mixture of test compound at 10 uM or in serial dilution, CYP probe substrate described above and 0.2 mg/mL pooled HLM in phosphate buffer, pH 7.4 in a final volume of 200 μL was pre-incubated at 37° C. for 10 minutes in triplicate. The reaction was initiated by addition of NADPH at final concentration of 1 mM. […] The samples were then centrifuged at 13,000 rpm and the supernatants were injected to LC-MS/MS (Agilent Technologies) to quantify the concentration of the specific metabolites of the probe substrates formed by individual CYP450 isoforms. The inhibition ratio is calculated as: (Mt−M0)/Mwater×100% • in which Mt and M0 represent the concentrations of the specific probe substrate metabolite, which was formed by individual CYP450 isoform, at the beginning and end of the reaction in the presence of test compound; while Mwater represents the concentration of the specific metabolite at the end of the reaction in the absence of test compound. […]

hERG channel, sequence (Q12809 whole entry): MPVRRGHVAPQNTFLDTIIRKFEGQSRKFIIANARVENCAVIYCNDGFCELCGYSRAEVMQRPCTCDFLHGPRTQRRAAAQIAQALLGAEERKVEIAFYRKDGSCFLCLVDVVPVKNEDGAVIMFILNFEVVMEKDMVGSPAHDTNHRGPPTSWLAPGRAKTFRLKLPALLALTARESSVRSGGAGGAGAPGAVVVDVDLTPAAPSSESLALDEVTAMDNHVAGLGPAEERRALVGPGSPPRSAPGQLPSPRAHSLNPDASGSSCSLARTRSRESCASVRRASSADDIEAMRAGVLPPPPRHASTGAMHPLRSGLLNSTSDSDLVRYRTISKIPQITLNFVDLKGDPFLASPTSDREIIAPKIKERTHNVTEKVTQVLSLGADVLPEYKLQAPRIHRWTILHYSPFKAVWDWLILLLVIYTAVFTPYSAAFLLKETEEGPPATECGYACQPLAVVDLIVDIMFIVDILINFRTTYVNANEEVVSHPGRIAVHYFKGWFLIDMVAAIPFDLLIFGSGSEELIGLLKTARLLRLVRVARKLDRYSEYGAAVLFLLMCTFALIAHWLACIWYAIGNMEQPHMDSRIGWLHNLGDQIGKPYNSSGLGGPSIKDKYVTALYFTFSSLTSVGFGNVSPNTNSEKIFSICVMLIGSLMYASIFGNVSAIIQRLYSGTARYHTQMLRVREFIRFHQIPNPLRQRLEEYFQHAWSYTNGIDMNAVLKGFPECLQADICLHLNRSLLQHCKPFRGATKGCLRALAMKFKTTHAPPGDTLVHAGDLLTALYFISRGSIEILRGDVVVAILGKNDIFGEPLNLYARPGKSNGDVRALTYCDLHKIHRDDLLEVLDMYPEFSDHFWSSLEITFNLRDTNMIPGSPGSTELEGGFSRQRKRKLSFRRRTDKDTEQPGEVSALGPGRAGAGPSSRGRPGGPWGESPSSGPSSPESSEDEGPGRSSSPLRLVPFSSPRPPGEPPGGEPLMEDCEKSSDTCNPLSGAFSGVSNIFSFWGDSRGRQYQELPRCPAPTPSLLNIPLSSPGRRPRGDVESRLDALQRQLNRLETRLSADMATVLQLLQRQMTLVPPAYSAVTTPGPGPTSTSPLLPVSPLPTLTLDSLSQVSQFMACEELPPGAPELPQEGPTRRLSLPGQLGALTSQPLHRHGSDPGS
human NR1/NR2B, sequence (Q13224 27-1484, other chains not shown): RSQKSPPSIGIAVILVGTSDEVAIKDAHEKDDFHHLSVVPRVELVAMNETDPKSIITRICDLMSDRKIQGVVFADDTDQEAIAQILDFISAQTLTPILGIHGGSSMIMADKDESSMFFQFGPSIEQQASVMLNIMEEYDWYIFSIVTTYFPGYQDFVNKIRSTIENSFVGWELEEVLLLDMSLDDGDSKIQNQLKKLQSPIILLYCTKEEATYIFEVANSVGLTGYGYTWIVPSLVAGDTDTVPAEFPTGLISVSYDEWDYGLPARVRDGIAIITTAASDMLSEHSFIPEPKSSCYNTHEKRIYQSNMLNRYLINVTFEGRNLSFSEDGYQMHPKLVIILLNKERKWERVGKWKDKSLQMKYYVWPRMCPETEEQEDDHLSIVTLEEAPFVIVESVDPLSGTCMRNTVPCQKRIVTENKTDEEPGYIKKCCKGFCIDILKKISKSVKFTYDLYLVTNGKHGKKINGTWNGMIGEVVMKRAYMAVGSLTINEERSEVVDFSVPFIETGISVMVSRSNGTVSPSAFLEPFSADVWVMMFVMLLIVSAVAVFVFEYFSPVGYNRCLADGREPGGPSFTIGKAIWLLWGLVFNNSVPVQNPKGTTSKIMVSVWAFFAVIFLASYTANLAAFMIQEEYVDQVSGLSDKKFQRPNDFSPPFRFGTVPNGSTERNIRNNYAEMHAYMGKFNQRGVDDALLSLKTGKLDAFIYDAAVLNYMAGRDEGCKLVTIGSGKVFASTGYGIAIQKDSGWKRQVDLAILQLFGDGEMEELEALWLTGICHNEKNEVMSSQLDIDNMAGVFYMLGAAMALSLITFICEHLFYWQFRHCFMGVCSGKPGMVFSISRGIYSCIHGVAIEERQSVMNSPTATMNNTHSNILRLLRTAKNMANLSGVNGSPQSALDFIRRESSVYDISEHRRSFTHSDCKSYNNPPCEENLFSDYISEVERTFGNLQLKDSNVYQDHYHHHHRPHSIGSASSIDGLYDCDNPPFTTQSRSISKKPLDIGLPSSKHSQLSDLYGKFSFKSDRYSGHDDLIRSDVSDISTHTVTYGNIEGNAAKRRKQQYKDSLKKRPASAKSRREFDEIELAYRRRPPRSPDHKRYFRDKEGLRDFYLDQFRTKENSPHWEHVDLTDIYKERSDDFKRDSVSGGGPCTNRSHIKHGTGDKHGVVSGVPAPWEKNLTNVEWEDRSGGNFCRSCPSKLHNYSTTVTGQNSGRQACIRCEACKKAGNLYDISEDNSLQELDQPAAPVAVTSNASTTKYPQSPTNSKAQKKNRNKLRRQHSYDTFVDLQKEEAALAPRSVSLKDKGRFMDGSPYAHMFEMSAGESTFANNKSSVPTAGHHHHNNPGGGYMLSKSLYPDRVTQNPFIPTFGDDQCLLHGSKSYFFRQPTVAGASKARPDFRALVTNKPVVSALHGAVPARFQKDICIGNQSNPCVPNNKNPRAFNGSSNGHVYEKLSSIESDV
human NR1/NR2A, sequence (Q12879 23-1464, other chains not shown): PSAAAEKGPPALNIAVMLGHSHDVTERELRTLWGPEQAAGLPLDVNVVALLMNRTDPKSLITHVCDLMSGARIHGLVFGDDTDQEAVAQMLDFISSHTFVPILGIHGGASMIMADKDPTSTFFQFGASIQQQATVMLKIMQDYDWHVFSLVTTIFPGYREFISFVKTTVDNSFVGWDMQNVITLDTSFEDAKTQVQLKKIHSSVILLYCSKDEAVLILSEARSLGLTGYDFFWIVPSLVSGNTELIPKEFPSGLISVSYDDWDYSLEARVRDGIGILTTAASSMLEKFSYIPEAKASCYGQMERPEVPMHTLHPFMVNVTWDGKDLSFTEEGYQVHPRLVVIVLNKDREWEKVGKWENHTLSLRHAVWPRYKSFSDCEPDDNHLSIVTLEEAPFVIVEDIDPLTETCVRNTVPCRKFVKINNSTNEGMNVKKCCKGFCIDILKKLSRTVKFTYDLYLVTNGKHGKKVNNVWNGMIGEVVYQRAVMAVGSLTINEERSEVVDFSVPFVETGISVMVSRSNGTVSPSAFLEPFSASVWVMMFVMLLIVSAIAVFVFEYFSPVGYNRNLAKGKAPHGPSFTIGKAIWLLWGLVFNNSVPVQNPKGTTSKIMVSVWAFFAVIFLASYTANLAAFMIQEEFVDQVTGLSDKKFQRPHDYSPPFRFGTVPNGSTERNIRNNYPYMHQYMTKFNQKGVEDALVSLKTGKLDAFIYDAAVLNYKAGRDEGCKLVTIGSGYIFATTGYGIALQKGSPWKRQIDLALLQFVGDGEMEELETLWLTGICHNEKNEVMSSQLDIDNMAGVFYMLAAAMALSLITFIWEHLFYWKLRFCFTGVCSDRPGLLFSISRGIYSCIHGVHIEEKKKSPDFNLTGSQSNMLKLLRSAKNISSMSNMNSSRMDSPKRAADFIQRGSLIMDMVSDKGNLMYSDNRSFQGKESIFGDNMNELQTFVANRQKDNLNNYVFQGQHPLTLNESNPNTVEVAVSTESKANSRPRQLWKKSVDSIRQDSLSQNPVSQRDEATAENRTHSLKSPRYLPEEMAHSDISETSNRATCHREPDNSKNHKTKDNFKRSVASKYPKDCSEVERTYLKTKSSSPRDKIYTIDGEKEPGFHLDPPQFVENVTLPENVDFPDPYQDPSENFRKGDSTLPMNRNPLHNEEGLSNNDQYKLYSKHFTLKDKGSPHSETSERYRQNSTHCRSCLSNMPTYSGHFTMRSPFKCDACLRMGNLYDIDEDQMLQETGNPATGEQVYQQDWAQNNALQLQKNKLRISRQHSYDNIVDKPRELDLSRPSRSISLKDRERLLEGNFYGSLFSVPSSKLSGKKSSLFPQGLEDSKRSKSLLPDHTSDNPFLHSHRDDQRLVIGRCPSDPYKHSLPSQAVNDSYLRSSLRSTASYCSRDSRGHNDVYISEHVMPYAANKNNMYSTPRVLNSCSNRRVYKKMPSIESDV

Structure (SMILES)	IC50 (human NR1/NR2A) [nM]	IC50 (human NR1/NR2B)	other results
FC(F)(CN1CCC(Nc2ncnc3[nH]ncc23)CC1)c1ncc(Cl)cc1Cl [C-24, N-(1-(2-(3,5-dichloropyridin-2-yl)-2,2-difluoroethyl)piperidin-4-yl)-1H-pyrazolo[3,4-d]pyrimidin-4-amine]	> 10000	52 nM	
Fc1cc(C(F)(F)F)cnc1C(F)(F)CN1CCC(Nc2ncnc3[nH]ncc23)CC1 [C-18, N-(1-(2,2-difluoro-2-(3-fluoro-5-(trifluoromethyl)pyridin-2-yl)-ethyl)piperidin-4-yl)-1H-pyrazolo[3,4-d]pyrimidin-4-amine]	> 10000	59 nM	immobility time (Male mice (strain NLMN); 10 mg/kg, 20 minutes after IP dosing, vehicle group 175±14, p<0.01): 97 ± 16 s
FC(F)c1ccc(C(F)(F)CN2CCC(Nc3ncnc4[nH]ncc34)CC2)nc1 [C-6]	> 10000	34 nM	
FC(F)(CN1CCC(Nc2ncnc3[nH]ncc23)CC1)c1ccccn1 [C-1, N-(1-(2,2-difluoro-2-(pyridin-2-yl)ethyl)piperidin-4-yl)-1H-pyrazolo[3,4-d]pyrimidin-4-amine]	> 10000	178 nM	
FC(F)(F)c1ccc(C(F)(F)CN2CCC(Nc3ncnc4[nH]ncc34)CC2)cn1 [C-127, N-(1-(2,2-difluoro-2-(6-(trifluoromethyl)pyridin-3-yl)ethyl)piperidin-4-yl)-1H-pyrazolo[3,4-d]pyrimidin-4-amine]		38 nM	IC50 (hERG channel): 23000 nM
Cc1cnc(C(F)(F)CN2CCC(Nc3ncnc4[nH]ncc34)CC2)c(F)c1 [C-17, N-(1-(2,2-difluoro-2-(3-fluoro-5-methylpyridin-2-yl)ethyl)piperidin-4-yl)-1H-pyrazolo[3,4-d]pyrimidin-4-amine]	> 10000	48 nM	
Cc1ccc(C(F)(F)CN2CCC(Nc3ncnc4[nH]ncc34)CC2)nc1 [C-4, N-(1-(2,2-difluoro-2-(5-methylpyridin-2-yl)ethyl)piperidin-4-yl)-1H-pyrazolo[3,4-d]pyrimidin-4-amine]	> 10000	52 nM	
Fc1cnc(C(F)(F)CN2CCC(Nc3ncnc4[nH]ncc34)CC2)c(F)c1 [C-15, N-(1-(2-(3,5-difluoropyridin-2-yl)-2,2-difluoroethyl)piperidin-4-yl)-1H-pyrazolo[3,4-d]-pyrimidin-4-amine]	> 10000	93 nM	
Cc1n[nH]c2ncnc(NC3CCN(CC(F)(F)c4ccc(C(F)(F)F)cn4)CC3)c12 [C-33, N-(1-(2,2-difluoro-2-(5-(trifluoromethyl)pyridin-2-yl)ethyl)piperidin-4-yl)-3-methyl-1H-pyrazolo[3,4-d]pyrimidin-4-amine]	> 10000	110 nM and 89 nM	IC50 (hERG channel): > 30000 nM
Fc1cc(Cl)cnc1C(F)(F)CN1CCC(Nc2ncnc3[nH]ncc23)CC1 [C-16, N-(1-(2-(5-chloro-3-fluoropyridin-2-yl)-2,2-difluoroethyl)piperidin-4-yl)-1H-pyrazolo[3,4-d]pyrimidin-4-amine]	> 10000	30 nM	IC50 (hERG channel): 13000 nM; IC50 (CYP2D6): 10000 nM
FCc1ccc(C(F)(F)CN2CCC(Nc3ncnc4[nH]ncc34)CC2)nc1 [C-7]	> 10000	43 nM	
FC(F)(F)c1ccc(C(F)(F)CN2CCC(Nc3ncnc4[nH]ncc34)CC2)nc1 [C-5, N-(1-(2,2-difluoro-2-(5-(trifluoromethyl)pyridin-2-yl)ethyl)piperidin-4-yl)-1H-pyrazolo[3,4-d]pyrimidin-4-amine]	> 10000		IC50 (hERG channel): 31000 nM; immobility time (Male mice (strain NLMN); 3 mg/kg IP, vehicle group 188±6.6, p<0.05): 111 ± 18.3 s; immobility time (Male mice (strain NLMN); 10 mg/kg IP, vehicle group 188±6.6, p<0.01): 89 ± 14.4 s
CN(C)CCCN1c2ccccc2CCc2ccccc21 [imipramine, reference compound]			antidepressant activity (Male mice (strain NLMN); positive control, 32 mg/kg, IP): showed the expected antidepressant activity
FC(F)(CN1CCC(Nc2ncnc3[nH]ncc23)CC1)c1ccc(Cl)cn1 [C-3]	> 10000	26 nM	
FC(F)Oc1ccc(C(F)(F)CN2CCC(Nc3ncnc4[nH]ncc34)CC2)nc1 [C-12]	> 10000	23 nM	
